# Key:
# Mcl-1 protein = Mcl-1 protein (UniProtKB primary accession number: Q07820) (Homo sapiens, UniProt Q07820); assay: Inhibition of Mcl-1 by fluorescence polarisation, Method 1; format: binding; conditions: fluorescence polarisation test; Method 2 values are underlined in the patent (underlining not visible here); read-out: IC50 (M) Mcl-1 FP
# Procedure, shortened: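 Fluorescence polarisation competition with an 11-point compound dilution series (final DMSO 5%). Mcl-1 protein at 5 nM and fluorescein-labelled ligand at 1 nM (final) in 10 mM HEPES, 150 mM NaCl, 0.05% Tween 20, pH 7.4.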
# [1] = test system: H929 multiple myeloma tumour line; assay: In vitro cytotoxicity, Microculture Tetrazolium Assay; format: cell-based; conditions: Homo sapiens, NCI-H929, 48 h, H929 cells, 48 hours exposure, MTT; read-out: IC50 (μM) MTT H929
# Protocol: The cytotoxicity studies were carried out on the H929 multiple myeloma tumour line.
# The cells are distributed onto microplates and exposed to the test compounds for 48 hours.
# Chain of Mcl-1 protein (Q07820 whole entry): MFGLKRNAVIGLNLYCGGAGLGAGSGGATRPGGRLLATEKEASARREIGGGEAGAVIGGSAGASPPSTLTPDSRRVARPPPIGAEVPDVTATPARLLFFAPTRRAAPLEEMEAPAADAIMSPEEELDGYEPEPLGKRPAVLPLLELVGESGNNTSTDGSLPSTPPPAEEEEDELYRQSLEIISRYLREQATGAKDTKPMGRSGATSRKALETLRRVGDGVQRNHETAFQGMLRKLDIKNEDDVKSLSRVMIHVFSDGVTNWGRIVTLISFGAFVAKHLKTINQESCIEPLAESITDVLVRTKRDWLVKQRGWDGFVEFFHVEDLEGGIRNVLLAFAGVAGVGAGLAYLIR
Structure (SMILES),IC50 (Mcl-1 protein),IC50 [1]
"CSc1nccc(COc2ccccc2CC(Oc2ncnc3sc(-c4ccc(F)cc4)c(-c4ccc(OCCN5CCN(C)CC5)c(Cl)c4C)c23)C(=O)O)n1 [Example 65, (2R)-2-{[(5Sa)-5-{3-chloro-2-methyl-4-[2-(4-methylpiperazin-1-yl)ethoxy]phenyl}-6-(4-fluorophenyl)thieno[2,3-d]pyrimidin-4-yl]oxy}-3-(2-{[2-(methylsulfanyl)pyrimidin-4-yl]methoxy}phenyl)propanoic acid]",1e-08 M,0.043 µM
"COCCCSc1nccc(COc2ccccc2CC(Oc2ncnc3sc(-c4ccc(F)cc4)c(-c4ccc(OCCN5CCN(C)CC5)c(Cl)c4C)c23)C(=O)O)n1 [Example 66, (2R)-2-{[(5Sa)-5-{3-chloro-2-methyl-4-[2-(4-methylpiperazin-1-yl)ethoxy]phenyl}-6-(4-fluorophenyl)thieno[2,3-d]pyrimidin-4-yl]oxy}-3-[2-({2-[(3-methoxypropyl)sulfanyl]pyrimidin-4-yl}methoxy)phenyl]propanoic acid]",4.6e-09 M,0.037 µM
"Cc1c(-c2c(-c3ccc(F)cc3)sc3ncnc(OC(Cc4ccccc4OCc4ccncn4)C(=O)O)c23)ccc(OCCN2CCN(C)CC2)c1Cl [Example 68, (2R)-2-{[(5Sa)-5-{3-chloro-2-methyl-4-[2-(4-methylpiperazin-1-yl)ethoxy]phenyl}-6-(4-fluorophenyl)thieno[2,3-d]pyrimidin-4-yl]oxy}-3-[2-(pyrimidin-4-ylmethoxy)phenyl]propanoic acid]",9.1e-09 M,0.035 µM
"Cc1c(-c2c(-c3ccc(F)cc3)sc3ncnc(OC(Cc4ccccc4OCc4ccnn4C4CCCC4)C(=O)O)c23)ccc(OCCN2CCN(C)CC2)c1Cl [Example 72, (2R)-2-{[(5Sa)-5-{3-chloro-2-methyl-4-[2-(4-methylpiperazin-1-yl)ethoxy]phenyl}-6-(4-fluorophenyl)thieno[2,3-d]pyrimidin-4-yl]oxy}-3-{2-[(1-cyclopentyl-1H-pyrazol-5-yl)methoxy]phenyl}propanoic acid]",9.3e-09 M,0.04 µM
"Cc1c(-c2c(-c3ccc(F)cc3)sc3ncnc(OC(Cc4ccccc4OCc4ccnn4C4CCCCC4)C(=O)O)c23)ccc(OCCN2CCN(C)CC2)c1Cl [Example 73, (2R)-2-{[(5Sa)-5-{3-chloro-2-methyl-4-[2-(4-methylpiperazin-1-yl)ethoxy]phenyl}-6-(4-fluorophenyl)thieno[2,3-d]pyrimidin-4-yl]oxy}-3-{2-[(1-cyclohexyl-1H-pyrazol-5-yl)methoxy]phenyl}propanoic acid]",8.3e-09 M,0.122 µM
"Cc1c(-c2c(-c3ccc(F)cc3)sc3ncnc(OC(Cc4ccccc4OCc4ccnn4-c4ccccc4)C(=O)O)c23)ccc(OCCN2CCN(C)CC2)c1Cl [Example 74, (2R)-2-{[(5Sa)-5-{3-chloro-2-methyl-4-[2-(4-methylpiperazin-1-yl)ethoxy]phenyl}-6-(4-fluorophenyl)thieno[2,3-d]pyrimidin-4-yl]oxy}-3-{2-[(1-phenyl-1H-pyrazol-5-yl)methoxy]phenyl}propanoic acid]",1.6e-08 M,0.365 µM
"Cc1c(-c2c(-c3ccc(F)cc3)sc3ncnc(OC(Cc4ccccc4OCc4ccnn4CC4CC4)C(=O)O)c23)ccc(OCCN2CCN(C)CC2)c1Cl [Example 78, (2R)-2-{[(5Sa)-5-{3-chloro-2-methyl-4-[2-(4-methylpiperazin-1-yl)ethoxy]phenyl}-6-(4-fluorophenyl)thieno[2,3-d]pyrimidin-4-yl]oxy}-3-(2-{[1-(cyclopropylmethyl)-1H-pyrazol-5-yl]methoxy}phenyl)propanoic acid]",6.6e-09 M,0.033 µM
"COc1ccc(Cn2nccc2COc2ccccc2CC(Oc2ncnc3sc(-c4ccc(F)cc4)c(-c4ccc(OCCN5CCN(C)CC5)c(Cl)c4C)c23)C(=O)O)cc1 [Example 79, (2R)-2-{[(5Sa)-5-{3-chloro-2-methyl-4-[2-(4-methylpiperazin-1-yl)ethoxy]phenyl}-6-(4-fluorophenyl)thieno[2,3-d]pyrimidin-4-yl]oxy}-3-(2-{[1-(4-methoxybenzyl)-1H-pyrazol-5-yl]methoxy}phenyl)propanoic acid]",1.3e-08 M,0.168 µM
"Cc1c(-c2c(-c3ccc(F)cc3)sc3ncnc(OC(Cc4ccccc4OCc4ccnn4CC4CCCCC4)C(=O)O)c23)ccc(OCCN2CCN(C)CC2)c1Cl [Example 80, (2R)-2-{[(5Sa)-5-{3-chloro-2-methyl-4-[2-(4-methylpiperazin-1-yl)ethoxy]phenyl}-6-(4-fluorophenyl)thieno[2,3-d]pyrimidin-4-yl]oxy}-3-(2-{[1-(cyclohexylmethyl)-1H-pyrazol-5-yl]methoxy}phenyl)propanoic acid]",4.5e-09 M,0.035 µM
"CCCn1nccc1COc1ccccc1CC(Oc1ncnc2sc(-c3ccc(F)cc3)c(-c3ccc(OCCN4CCN(C)CC4)c(Cl)c3C)c12)C(=O)O [Example 81, (2R)-2-{[(5Sa)-5-{3-chloro-2-methyl-4-[2-(4-methylpiperazin-1-yl)ethoxy]phenyl}-6-(4-fluorophenyl)thieno[2,3-d]pyrimidin-4-yl]oxy}-3-{2-[(1-propyl-1H-pyrazol-5-yl)methoxy]phenyl}propanoic acid]",7.6e-09 M,0.034 µM
"Cc1c(-c2c(-c3ccc(F)cc3)sc3ncnc(OC(Cc4ccccc4OCc4ccnn4CCC(C)C)C(=O)O)c23)ccc(OCCN2CCN(C)CC2)c1Cl [Example 82, (2R)-2-{[(5Sa)-5-{3-chloro-2-methyl-4-[2-(4-methylpiperazin-1-yl)ethoxy]phenyl}-6-(4-fluorophenyl)thieno[2,3-d]pyrimidin-4-yl]oxy}-3-(2-{[1-(3-methylbutyl)-1H-pyrazol-5-yl]methoxy}phenyl)propanoic acid]",5.1e-09 M,0.078 µM
"Cc1c(-c2c(-c3ccc(F)cc3)sc3ncnc(OC(Cc4ccccc4OCc4ccnn4CCN(C)C)C(=O)O)c23)ccc(OCCN2CCN(C)CC2)c1Cl [Example 87, (2R)-2-{[(5Sa)-5-{3-chloro-2-methyl-4-[2-(4-methylpiperazin-1-yl)ethoxy]phenyl}-6-(4-fluorophenyl)thieno[2,3-d]pyrimidin-4-yl]oxy}-3-[2-({1-[2-(dimethylamino)ethyl]-1H-pyrazol-5-yl}methoxy)phenyl]propanoic acid]",7e-09 M,0.274 µM

# The next compounds have a lower IC50 (Mcl-1 protein) than those just listed; values first:
IC50 (Mcl-1 protein),Structure (SMILES),IC50 [1]
3.4e-09 M,"COCCSc1nccc(COc2ccccc2CC(Oc2ncnc3sc(-c4ccc(F)cc4)c(-c4ccc(OCCN5CCN(C)CC5)c(Cl)c4C)c23)C(=O)O)n1 [Example 67, (2R)-2-{[(5Sa)-5-{3-chloro-2-methyl-4-[2-(4-methylpiperazin-1-yl)ethoxy]phenyl}-6-(4-fluorophenyl)thieno[2,3-d]pyrimidin-4-yl]oxy}-3-[2-({2-[(2-methoxyethyl)sulfanyl]pyrimidin-4-yl}methoxy)phenyl]propanoic acid]",0.03 µM
4e-09 M,"Cc1c(-c2c(-c3ccc(F)cc3)sc3ncnc(OC(Cc4ccccc4OCc4ccnn4C4CCOCC4)C(=O)O)c23)ccc(OCCN2CCN(C)CC2)c1Cl [Example 75, (2R)-2-{[(5Sa)-5-{3-chloro-2-methyl-4-[2-(4-methylpiperazin-1-yl)ethoxy]phenyl}-6-(4-fluorophenyl)thieno[2,3-d]pyrimidin-4-yl]oxy}-3-(2-{[1-(tetrahydro-2H-pyran-4-yl)-1H-pyrazol-5-yl]methoxy}phenyl)propanoic acid]",0.11 µM
3.8e-09 M,"Cc1c(-c2c(-c3ccc(F)cc3)sc3ncnc(OC(Cc4ccccc4OCc4ccnn4CCCC(F)(F)F)C(=O)O)c23)ccc(OCCN2CCN(C)CC2)c1Cl [Example 84, (2R)-2-{[(5Sa)-5-{3-chloro-2-methyl-4-[2-(4-methylpiperazin-1-yl)ethoxy]phenyl}-6-(4-fluorophenyl)thieno[2,3-d]pyrimidin-4-yl]oxy}-3-(2-{[1-(4,4,4-trifluorobutyl)-1H-pyrazol-5-yl]methoxy}phenyl)propanoic acid]",0.018 µM
3.6e-09 M,"CCCCCn1nccc1COc1ccccc1CC(Oc1ncnc2sc(-c3ccc(F)cc3)c(-c3ccc(OCCN4CCN(C)CC4)c(Cl)c3C)c12)C(=O)O [Example 85, (2R)-2-{[(5Sa)-5-{3-chloro-2-methyl-4-[2-(4-methylpiperazin-1-yl)ethoxy]phenyl}-6-(4-fluorophenyl)thieno[2,3-d]pyrimidin-4-yl]oxy}-3-{2-[(1-pentyl-1H-pyrazol-5-yl)methoxy]phenyl}propanoic acid]",0.063 µM
2.9e-09 M,"COCCCn1nccc1COc1ccccc1CC(Oc1ncnc2sc(-c3ccc(F)cc3)c(-c3ccc(OCCN4CCN(C)CC4)c(Cl)c3C)c12)C(=O)O [Example 86, (2R)-2-{[(5Sa)-5-{3-chloro-2-methyl-4-[2-(4-methylpiperazin-1-yl)ethoxy]phenyl}-6-(4-fluorophenyl)thieno[2,3-d]pyrimidin-4-yl]oxy}-3-(2-{[1-(3-methoxypropyl)-1H-pyrazol-5-yl]methoxy}phenyl)propanoic acid]",0.063 µM
4.2e-09 M,"COCCn1nccc1COc1ccccc1CC(Oc1ncnc2sc(-c3ccc(F)cc3)c(-c3ccc(OCCN4CCN(C)CC4)c(Cl)c3C)c12)C(=O)O [Example 88, (2R)-2-{[(5Sa)-5-{3-chloro-2-methyl-4-[2-(4-methylpiperazin-1-yl)ethoxy]phenyl}-6-(4-fluorophenyl)thieno[2,3-d]pyrimidin-4-yl]oxy}-3-(2-{[1-(2-methoxyethyl)-1H-pyrazol-5-yl]methoxy}phenyl)propanoic acid]",0.062 µM

# From patent US9670227B2, “Thienopyrimidine derivatives, a process for their preparation and pharmaceutical compositions containing them” (LES LABORATOIRES SERVIER, priority 2013, dated 2017)
